{
  "source": "patent US8178559B2",
  "about": "“Organic compounds” (Novartis AG, priority 2004, dated 2012)",
  "molecular_target": "T1, renin (Homo sapiens, UniProt P00797)",
  "T1 construct": "made in house; host or cells: Chinese Hamster Ovary cells",
  "T1 sequence (P00797 67-406)": "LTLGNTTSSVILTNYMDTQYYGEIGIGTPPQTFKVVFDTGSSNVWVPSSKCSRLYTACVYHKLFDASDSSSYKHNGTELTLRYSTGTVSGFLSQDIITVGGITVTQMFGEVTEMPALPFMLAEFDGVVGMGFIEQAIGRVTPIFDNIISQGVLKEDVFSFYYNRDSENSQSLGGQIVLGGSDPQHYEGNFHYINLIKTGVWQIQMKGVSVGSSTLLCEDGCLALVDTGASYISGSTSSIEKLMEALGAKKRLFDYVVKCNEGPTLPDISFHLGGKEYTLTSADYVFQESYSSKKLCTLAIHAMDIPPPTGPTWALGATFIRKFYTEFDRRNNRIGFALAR",
  "assay": "renin enzyme assay (which of the described assay systems is not specified)",
  "format": "biochemical",
  "settings": "in the several assay system as described above",
  "procedure": "Recombinant human renin (expressed in Chinese Hamster Ovary cells and purified using standard methods) at 7.5 nM concentration is incubated with test compound at various concentrations for 1 h at RT in 0.1 M Tris-HCl buffer, pH 7.4, containing 0.05 M NaCl, 0.5 mM EDTA and 0.05% CHAPS. Synthetic peptide substrate Arg-Glu(EDANS)-Ile-His-Pro-Phe-His-Leu-Val-Ile_His_Thr-Lys(DABCYL)-Arg9 is added to a final concentration of 2 μM and increase in fluorescence is recorded at an excitation wave-length of 350 nm and at an emission wave-length of 500 nm in a microplate spectro-fluorimeter. IC50 values are calculated from percentage of inhibition of renin activity as a function of test compound concentration (Fluorescence Resonance Energy Transfer, FRET, assay).\nAlternatively, recombinant human renin (expressed in Chinese Hamster Ovary cells and purified using standard methods) at 0.5 nM concentration is incubated with test compound at various concentrations for 2 h at 37° C. in 0.1 M Tris-HCl buffer, pH 7.4, containing 0.05 M NaCl, 0.5 mM EDTA and 0.05% CHAPS. Synthetic peptide substrate Arg-Glu(EDANS)-Ile-His-Pro-Phe-His-Leu-Val-Ile_His_Thr-Lys(DABCYL)-Arg9 is added to a final concentration of 4 μM and increase in fluorescence is recorded at an excitation wave-length of 340 nm and at an emission wave-length of 485 nm in a microplate spectro-fluorimeter. […]",
  "data": [
    {"smiles": "Cc1cccc(CN(C(=O)[C@H]2CNCC[C@@H]2c2cccc(-c3ccccc3)c2)C2CC2)c1C", "note": "[Example 75]", "values": [
      {"measurement": "inhibitory activity compared with the active enantiomer of Example 8", "value": "same inhibitory activity to an active enantiomer of Example 8"}
    ]}
  ]
}
